Like-named read-outs stand apart in the source and are kept apart here.

The record followed here is patent US6337325B1, “Combined preparation for the therapy of immune diseases” (Hoechst Aktiengesellschaft, priority 1994, dated 2002).

The subject of assay [1] is patient with pronounced psoriasis. Briefly: Topical application to a single patient with pronounced psoriasis, subjective symptom scores. The class given is in vivo, human. The note with it: after a 6-week application. As for the experimental part: The effect of the topical application of a combination according to the invention to a single patient with pronounced psoriasis was studied in a parallel comparison. For this purpose the test substances pentoxifylline and diltiazem, dissolved in 30 ml of polypropylene glycol/ethanol/water (1:1:1. v/v), were incorporated, individually or together, in a final concentration of 2% (pentoxifylline) or 1% (diltiazem), into a commercially available creamy skin care product (Nivea lotion), ultimately giving the following 4 different formulations:
A) lotion without test substance (=vehicle control)
B) lotion with 2% of pentoxifylline
C) lotion with 1% of diltiazem
D) lotion with 2% of pentoxifylline+1% of diltiazem
Twice a day for 6 weeks, these 4 formulations were applied locally, with rubbing, to areas of skin on the patient's trunk which were affected by pronounced symptoms of psoriasis and had previously been precisely defined, particular care being taken to ensure that the same formulation was always applied to the same area of skin. The therapeutic result was monitored visually and evaluated by means of the following subjective scores: […]

Assay [2] concerns PHA-induced release of TNFα from peripheral blood mononuclear cells. As to the kind of experiment: Inhibition of PHA-induced release of TNFα from PBMC (L929 cytotoxicity read-out). It counts as cell-based. The note with it: Homo sapiens. The procedure:
(§1) For all the in vitro tests, peripheral blood mononuclear cells (PBMC) were obtained from the blood of healthy donors by density gradient centrifugation in Ficoll-Hypaque (Pharmacia, Uppsala). This isolation step separated monocytes and lymphocytes from the other blood constituents. Further working-up of this PBMC fraction was carried out in accordance Ad with the requirements of the test preparations described below.
(§2) The resulting PBMC were incubated on microtiter plates together with phythemagglutinin (PHA, 5 μg/ml). […] Incubation was carried out at 37° C. in 5% CO2 with protection from the light. After 20 hours (h) (TNFα determination), 24 h (IL-2 determination) or 120 h (IFNγ determination), the cell supernatants were tested for cytokine release. TNFα was determined via its cytotoxicity to L929 cells, IL-2 was quantified via the proliferation of CTL-L6 cells and IFNγ was determined using a sandwich ELISA.
The following test examined the dependence of the inhibition of PHA-induced cytokine formation on the type of so-called “calcium antagonist” added.

In assay [3] the test system is PHA-induced release of IFNγ from peripheral blood mononuclear cells. As to the kind of experiment: Inhibition of PHA-induced release of IFNγ from PBMC (sandwich ELISA). The class given is cell-based. The note with it: Homo sapiens, PHA 5 μg/ml, 120 h. As for the experimental part: as §1, §2
Assay [4] relates to T lymphocytes stimulated via CD28/PMA. As to the kind of experiment: T lymphocyte proliferation (3H-thymidine), stimulation via CD28/PMA. The class given is cell-based, human. As for the experimental part: as §1
(§3) The PBMC fraction was further fractionated to give pure T lymphocytes. This was done using Lympho-KWIK-T, a mixture of monoclonal antibodies from anti-monocytes and anti-B cells and complement, together with a mixture of monoclonal anti-NK and anti-monocyte antibodies with Leu 11 b (anti-CD16, IgM) and Leu 7 (anti-CD57, IgM) (One Lambda Inc., Los Angeles, Calif., USA). The isolation and purification of the T lymphocytes from the PBMC fraction was effected by means of the following process steps:
(§4) Monocytes are removed by cold agglutination.
30×10^6 of the cells obtained are incubated with 0.8 ml of Lympho-KWIK-T for 1 hour at 37° C.
The cells are washed three times and then incubated for 30 minutes at 4° C. with the mixture of monoclonal anti-NK and anti-monocyte antibodies.
The cells are washed once and re-incubated with 0.8 ml of Lympho-KWIK-T for 1 hour at 37° C.
After 64 h of incubation the cells were treated in each case with 1 μCi of ^3H-thymidine; 8 h later they were collected on glass fiber filters and the incorporated radioactivity was measured in a β counter.
The percentage inhibition of the T lymphocyte proliferation by the test substances was compared with a control not containing test substance, subtracting a basal value without monoclonal antibodies. The mean value from 4 parallel preparations was used for the evaluation.

Assay [5] has as its system PHA-induced release of IL-2 from peripheral blood mononuclear cells. As to the kind of experiment: Inhibition of PHA-induced release of IL-2 from PBMC (CTL-L6 proliferation read-out). It counts as cell-based. The settings on record: Homo sapiens. The procedure: as §1, §2
For assay [6], the system named is T lymphocytes stimulated via CD3/PMA. Briefly: T lymphocyte proliferation (3H-thymidine), stimulation via CD3/PMA. It counts as cell-based. The settings on record: Homo sapiens, 72 h. The procedure: as §1, §3, §4
30×10^6 of the cells obtained are incubated with 0.8 ml of Lympho-KWIK-T for 1 hour at 37° C. […]
After 64 h of incubation the cells were treated in each case with 1 μCi of ^3H-thymidine; 8 h later they were collected on glass fiber filters and the incorporated radioactivity was measured in a β counter. […]

For the compound `COc1ccc([C@@H]2Sc3ccccc3N(CCN(C)C)C(=O)[C@@H]2OC(C)=O)cc1` [Diltiazem, diltiazem], the “psoriasis symptoms relative to the initial situation, in words” value in assay [1] was “practically no visible difference”. Also, in assay [2] (Table 2, test substance alone, 10 μmol/l, read-out: percentage inhibition of the PHA-induced release of TNFα, test substance alone), the inhibition at 10 µM worked out at 39 ± 13%.

As for `CCCC(=O)Nc1ncnc2c1ncn2[C@@H]1O[C@@H]2COP(=O)(O)O[C@H]2[C@H]1OC(=O)CCC` [db-cAMP, dibutyryl-cAMP], the inhibition at 0.1 µM in assay [3] (0.1 μmol/l final concentration) was 15 ± 8%; in assay [4] (Homo sapiens, T-lymphocyte, 0.1 μmol/l, T lymphocytes, 72 h), 11 ± 6%; in assay [5] (read-out: IL-2 % inhibition, 0.1 μmol/l final concentration, PHA 5 μg/ml, 24 h) it was 12 ± 4%; in assay [2] (0.1 μmol/l final concentration, PHA 5 μg/ml, 20 h) it was 31 ± 13%; in assay [6] (0.1 μmol/l) it was 16 ± 6%. For the same compound, the “activity on T lymphocyte activation via the CD28-dependent mechanism, in words” value in assay [4] (single substance, stimulation via CD28) is “practically inactive”.

For `CC(=O)CCCCn1c(=O)c2c(ncn2C)n(C)c1=O` [pentoxifylline], the inhibition at 50 µM was found to be 20 ± 9% in assay [3] (50 μmol/l final concentration); 14 ± 9% in assay [5] (read-out: IL-2 % inhibition, 50 μmol/l final concentration, PHA 5 μg/ml, 24 h); 28 ± 10% in assay [2] (50 μmol/l final concentration, PHA 5 μg/ml, 20 h, read-out: TNFα % inhibition); 28 ± 10% in assay [2] (Table 2, pentoxifylline alone, 50 μmol/l, read-out: percentage inhibition of the PHA-induced release of TNFα, pentoxifylline). Further, the inhibition at 40 µM in assay [4] (Homo sapiens, T-lymphocyte, 40 μmol/l, T lymphocytes, 72 h) was 28 ± 8%; in assay [6] (40 μmol/l), 21 ± 7%. Moreover, the “psoriasis symptoms relative to the initial situation, in words” value in assay [1] was “improved only moderately”.
